The values below are quoted from earlier work in article PMC7518156 (PeerJ, 2020).

Each structure is given as a SMILES string. Like-named read-outs stand apart in the source and are kept apart here.

The conditions of this data set: ref Scheffler et al., 2011, cited from earlier work; for half-life (t1/2): Lu et al., 2006.
The mark [1] stands for this setting: oral administration, cancer patients.
Where [2] appears, read: oral administration, healthy subjects.

Turning to `COc1cc2ncnc(Nc3ccc(F)c(Cl)c3)c2cc1OCCCN1CCOCC1` [GEF, Gefitinib], the “half-life (t1/2)” value is, setting by setting: (cancer patients) around 48 h; (healthy patients) “about 41 h”. In addition, the time of peak concentration (Tmax) result under setting [1] was “about 7 h”. The “time to reach maximum concentration (tmax)” value under setting [2] was 3 h.

Regarding `C#Cc1cccc(Nc2ncnc3cc(OCCOC)c(OCCOC)cc23)c1` [ERL, Erlotinib], the “half-life (t1/2)” value (cancer patients) is listed as “up to 40.9 h”. The “half-life (t1/2)” value (healthy patients) is “about 24.4 h”. Under setting [1], the F was 76% and the time to peak (Tmax) is reported as 3 h. In addition, under setting [2], the “mean bioavailability (F)” value was 59% and the “time to reach maximum concentration (tmax)” value is reported as 1.4 h.
